In publication PMC9252148 (IUCrJ, 2022):

Legend:
[1] = molecular target: T1, LCMV NP-exo (Lymphocytic choriomeningitis virus (strain Armstrong), UniProt P09992)
T1 construct: gene N

[2] = molecular target: T2, MOPV NP-exo (Mammarenavirus mopeiaense, UniProt P19239); conditions: 5 mM MnCl2, pH 8.0, 310 K, 5 min, 0.25 µM enzyme, 1.5 µM HP4 RNA; Mn2+-dependent; acts by metal-ion chelation
T2 construct: gene N
T2 sequence (P19239 365-570 limits assumed): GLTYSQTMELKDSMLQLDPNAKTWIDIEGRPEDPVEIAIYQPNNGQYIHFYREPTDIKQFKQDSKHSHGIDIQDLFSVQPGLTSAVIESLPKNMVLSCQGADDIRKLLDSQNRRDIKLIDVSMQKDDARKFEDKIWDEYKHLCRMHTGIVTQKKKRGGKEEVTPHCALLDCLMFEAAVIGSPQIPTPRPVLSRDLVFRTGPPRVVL

T1 sequence (P09992 357-558 limits assumed): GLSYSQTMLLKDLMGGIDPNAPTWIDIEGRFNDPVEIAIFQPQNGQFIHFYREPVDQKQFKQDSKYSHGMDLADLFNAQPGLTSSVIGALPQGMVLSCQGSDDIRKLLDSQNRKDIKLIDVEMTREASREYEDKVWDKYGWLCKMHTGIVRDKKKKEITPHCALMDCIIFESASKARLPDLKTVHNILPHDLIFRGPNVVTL

Q: Which IC50 [1] does the source give for alendronate here?
A: 68.6 ± 4.2 µM

Q: And the IC50 [2]?
A: 65.9 ± 1.7 µM
